Source: patent US20060122267A1, “Compositions and methods for attenuating mitochondria-mediated cell injury” (priority 2003, published 2006)

What was measured:
[1] = tested on: isolated adult rat cardiomyocytes; experiment: Cardiomyocyte model of ischemia-reperfusion injury, cell viability by Trypan blue exclusion; assay type: cell-based; conditions: for protection of cardiomyocyte viability from ischemia-reperfusion injury: 1 hour ischemia, 30 minutes reoxygenation
Experimental: Isolated adult rat cardiomyocytes were subjected to 1 hour ischemia (anoxic, glucose free medium, pH 6.5) followed by 30 minutes reoxygenation (labeled “HR”). Cell viability was assayed by Trypan blue exclusion. […] All data are means±SEM, N>3.
Adult rat cardiomyocytes were prepared by collagenase perfusion according to standard methods (Dai, et al. (2001) supra), yielding ˜4×10^6 cells per heart, >80% rod-shaped and viable. Incubations were in a shaking water bath at 37° C., each utilizing 5×10^5 cells in 5 mL of the KH buffers described below. For the control, cells were incubated for 2 hours in oxygenated KH buffer (95/5 O2/CO2). For ischemia-reperfusion treatment, cells were subjected to 30 minutes in oxygenated KH buffer, 1 hour in “ischemic” KH buffer (95/5 N2/CO2, pH 6.5, no glucose), and 30 minutes in oxygenated KH buffer. For the ischemia-reperfusion injury and test compound group of cells, ischemia-reperfusion injury was carried out as described above with test compound present during the 30 minute equilibration prior to ischemia-reperfusion and absent during ischemia. […] At the end of each protocol, cell viability was assayed (Trypan blue), and mitochondrial function determined (measurement of ΔΨm with the fluorescent probe TMRE, respiration with an O2 electrode, and S-nitrosothiol content by chemiluminescence and biotin-switch.

[2] = molecular target: T1, 75 kDa subunit of complex I (Rattus norvegicus, UniProt Q66HF1); experiment: SUPEROSE 6 chromatography S-nitrosothiol profile with biotin switch identification of S-nitrosated peptide; assay type: biochemical; conditions: S-nitrosoglutathione-treated mitochondria
T1 construct: Mitochondrial protein (3 mg) was extracted in 300 μL of column running buffer; from tissue; host or cells: rat heart mitochondria, SUPEROSE 6 column fraction enriched in complex I
T1 sequence (Q66HF1 24-727, one chain of several): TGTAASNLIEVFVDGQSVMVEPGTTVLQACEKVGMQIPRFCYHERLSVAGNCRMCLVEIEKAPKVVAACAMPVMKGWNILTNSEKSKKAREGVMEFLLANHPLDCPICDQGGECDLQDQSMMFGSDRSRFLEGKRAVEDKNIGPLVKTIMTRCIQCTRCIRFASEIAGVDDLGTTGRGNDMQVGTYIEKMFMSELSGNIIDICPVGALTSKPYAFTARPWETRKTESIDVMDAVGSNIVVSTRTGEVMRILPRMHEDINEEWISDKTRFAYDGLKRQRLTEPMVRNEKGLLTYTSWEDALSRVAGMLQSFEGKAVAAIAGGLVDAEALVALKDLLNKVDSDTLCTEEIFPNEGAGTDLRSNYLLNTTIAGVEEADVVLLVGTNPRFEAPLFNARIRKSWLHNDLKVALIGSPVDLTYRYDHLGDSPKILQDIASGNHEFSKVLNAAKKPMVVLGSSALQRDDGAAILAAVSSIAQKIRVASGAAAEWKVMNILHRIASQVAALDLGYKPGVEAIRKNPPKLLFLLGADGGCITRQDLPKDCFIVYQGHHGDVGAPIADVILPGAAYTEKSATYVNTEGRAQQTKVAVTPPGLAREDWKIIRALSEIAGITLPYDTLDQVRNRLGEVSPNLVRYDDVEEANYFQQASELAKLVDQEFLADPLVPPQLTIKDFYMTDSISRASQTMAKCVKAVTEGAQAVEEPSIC
From the text: To simplify separation of complex I, SUPEROSE™ 6 gel filtration chromatography was employed as a liquid phase high-throughput separation method (Danial, et al. (2003) Nature 424:952-6). Chemiluminescent analysis of column fractions was then used to construct an S-nitrosothiol profile. Most S-nitrosothiol concentrated in two regions of the chromatogram, eluting at ˜35% and 85% of the column bed volume.
The fraction with most S-nitrosothiol content was enriched in complex I activity, and was then further analyzed by biotin switch assay to identify S-nitrosated peptides (i.e., which of the 46 subunits in complex I was S-nitrosated). […]
A 25 cm×1 cm BIO-RAD® glass ECONO-COLUMN™ was used, with appropriate flow adaptor (BIO-RAD®, Hercules Calif.) and a MASTERFLEX™ peristaltic pump (Cole Parmer, Vernon Hills, Ill.). […] Fractions (200 μL) were collected, and their A280 measured to determine relative protein content. In addition, the S-nitrosothiol content and complex I activity of each fraction were analyzed as disclosed herein. […] Therefore, for data comparison the relative position of eluted column fractions was expressed as a percentage of the total column bed volume. […]
For biotin-switch analysis, intact mitochondrial pellets (1 mg protein solubilized in extraction buffer) or chromatography column fractions were analyzed in accordance with known methods (Jaffrey & Snyder (2001) supra). […]

N[C@@H](CCC(=O)N[C@@H](CSN=O)C(=O)NCC(=O)O)C(=O)O [S-nitrosoglutathione]
concentration required to achieve levels of protection comparable to 10-20 μM S-nitroso-2-mercaptopropylglycine [1]: 100 μM
protection of cardiomyocyte viability from ischemia-reperfusion injury ([1]; 10 μM): no protection
protection of cardiomyocyte viability from ischemia-reperfusion injury ([1]; 100 μM): significant protection
share of total protein-bound S-nitrosothiol contained in the 75 kDa subunit of complex I [2]: ~20%
